{"source": "patent US10793522B2", "about": "“Sulfonamides as inhibitors of the uptake of extracellular citrate” (Boehringer Ingelheim International GmbH, priority 2016, dated 2020)", "key": {"[1]": {"molecular_target": "T1, hSLC13A5 (Homo sapiens, UniProt Q86YT5)", "T1 sequence (Q86YT5 whole entry)": "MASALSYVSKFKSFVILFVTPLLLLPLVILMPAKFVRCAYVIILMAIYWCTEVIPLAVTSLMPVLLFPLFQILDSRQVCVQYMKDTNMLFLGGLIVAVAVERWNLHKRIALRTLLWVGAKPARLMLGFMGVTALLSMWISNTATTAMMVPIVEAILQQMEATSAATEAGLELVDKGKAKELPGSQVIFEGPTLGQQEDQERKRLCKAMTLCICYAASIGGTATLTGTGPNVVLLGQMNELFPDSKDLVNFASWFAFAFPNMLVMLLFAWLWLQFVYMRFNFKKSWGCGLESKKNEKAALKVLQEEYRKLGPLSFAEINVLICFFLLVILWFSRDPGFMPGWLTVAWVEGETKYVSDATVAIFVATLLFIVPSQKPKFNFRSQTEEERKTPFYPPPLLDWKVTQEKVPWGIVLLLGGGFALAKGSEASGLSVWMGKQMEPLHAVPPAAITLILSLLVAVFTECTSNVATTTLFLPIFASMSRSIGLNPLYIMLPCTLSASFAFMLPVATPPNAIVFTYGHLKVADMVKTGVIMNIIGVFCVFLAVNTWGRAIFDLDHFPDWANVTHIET", "assay": "HepG2/14C-citrate uptake assay", "format": "cell-based", "parameters": "HepG2 cells endogenously express hSLC13A5 transporter which is responsible for the uptake of citrate into these cells; endogenous in cells; host or cells: HepG2", "conditions": "HepG2 cells endogenously expressing hSLC13A5; Cytostar-T; 14C-citrate ~1.8 μM; incubation over night", "source_text": "(4) HepG2/^14C-Citrate Uptake Assay\nHepG2 cells endogenously expressing hSLC13A5 were obtained from the Wistar Institute (Knowles et al., Science 1980, 209, 497-499).\nHepG2 cells endogenously express hSLC13A5 transporter which is responsible for the uptake of citrate into these cells. […] The uptake of ^14C-citrate into HepG2 cells is monitored using the Cytostar-T assay. This assay format is based on the imported radioactive citrate brought into proximity with the scintillant contained within the base of the plate by virtue of the biological processes within the cells. The radioactive decay is converted to a light signal based on the integration of the scintillation matrix into the assay plate.\n(§1) Method: ^14C-Citrate Uptake Assay\nStarting from 10 mM stock solutions in 100% DMSO, compounds are diluted in pure DMSO using the appropriate dilution steps. Prior to the uptake assay, 400 μL assay medium+4.8 μL compound solution (or pure DMSO for non-inhibited control wells) are mixed (final DMSO concentration in the assay: 1% (v/v)) ^14C-citrate working solution (volumes required per 96-well):\nThe HepG2 cells are cultivated in cell culture medium (EMEM+10% fetal calf serum+1×NEAA and 10 mM L-Glutamin) For the assay, the medium of the confluent cultures is discarded and the cells are washed with DPBS w/o Mg^2+ w/o Ca^2+. The cells are detached by the addition of 1.0 mL 2× Trypsin in DPBS w/o Mg^2+ w/o Ca^2+ with 7.5 mM EDTA per 75 cm^2 culture flask for up to 3 minutes at 37° C. and resuspended in 10 mL cell culture medium. Following cell counting, 100,000 cells/well are seeded in a volume of 200 μL into Cytostar-T Scintillating 96-well microplates. After overnight incubation in a humid cell culture incubator at 37° C., 5% CO2, the cell culture medium is carefully aspirated and the cells are incubated with 200 μL prewarmed (37° C.) assay medium (50% DMEM+50% Ham's F-12+15 mM HEPES (pH 7.4) (medium contains 15.5 m M D(+)-glucose) per well for at least 1 h prior to the experiment.\nImmediately prior to uptake assay, the assay medium is carefully removed and 100 μL test compound dilution is added to each well (n=3).\nFollowing a 20 min incubation at 37° C. in the cell culture incubator, 20 μL of ^14C-citrate working solution is added to each well (final volume per well: 120 μL; final ^14C-citrate concentration ˜1.8 μM/well)).\nAfter incubation over night at 37° C. in the cell culture incubator, the plates are sealed on the top using a transparent plastic foil and on the bottom using a white plastic foil. Following the sealing, the plate is placed into the TopCount NXT HTS and the signal is recorded.\n(§2) The IC50 values of the compounds are calculated in IDBS XLfit by sigmoidal dose-response (variable slope)."}, "[2]": {"molecular_target": "T1, hSLC13A5", "assay": "Recombinant hSLC13A5/14C-citrate uptake assay", "format": "cell-based", "conditions": "HEK293 Flp-In cells over-expressing hSLC13A5; WGA-PVT SPA beads; 14C-citrate approx. 2 μM; 4 h", "source_text": "(5) Recombinant hSLC13A5/^14C-Citrate Uptake Assay\nThe human embryonic kidney 293 (HEK 293)-Flp-In cells (293Flp-In-hSLC13A5) over-expressing hSLC13A5 transporter were cloned: The originating plasmid pcDNA3.1-hSLC13A5 containing hSLC13A5 was synthesized at GeneArt. The cDNA for hSLC13A5 was taken from this plasmid by means of PCR amplification using primers with added HindIII (N-terminal) and XhoI (C-terminal) restriction sites and sub-cloned in frame into pcDNA5/FRT from Invitrogen using the respective restriction enzymes. HEK293 Flp-In cells from Invitrogen were stably co-transfected using the pcDNA/FRT-hSLC13A5 plasmid as well as the pOG44 plasmid.\nHEK 293-Flp-In cells are used that stably over-express hSLC13A5 transporter which is responsible for the uptake of citrate into these cells.\nThe uptake of ^14C-citrate into the 293Flp-In-hSLC13A5 cells is monitored using the WGA-PVT SPA (wheat germ agglutinin-polyvinyltoluene scintillation proximity assay) beads that bind to the 293Flp-In cells due to their WGA-PVT surface. This assay format is based on the imported radioactive citrate brought into proximity with the SPA beads by virtue of the biological processes within the cells. The radioactive decay is converted into a light signal that can be measured using e.g. the TopCount plate reader.\nas §1\nTest Compound Dilutions (2Fold-Concentrated):\nStarting from 10 mM stock solutions in 100% DMSO, compounds are diluted in pure DMSO using the appropriate dilution steps.\nPrior to the uptake assay, 200 μL assay medium (lx HBSS (with Ca^2+ and Mg^2+, w/o Phenolred), contains 5.56 mM D(+)-Glucose)+19.44 mM D(+)-Glucose (final concentration of D(+)-Glucose is 25 mM))+4.8 μL compound solution (or pure DMSO for non-inhibited control wells) are mixed (final DMSO concentration in the assay: 1% (v/v)).\nAfter preparing the 2fold-concentrated test compound dilutions, 50 μL are pipetted to each well of white OptiPlates-96 and incubated at 37° C. in an incubator.\n^14C-Citrate Working Solution (Volumes Required Per 96-Well):\nThe 293Flp-In-hSLC13A5 cells are cultivated in cell culture medium (DMEM+10% fetal calf serum+100 μg/mL Hygromycin B). The medium of the confluent cultures is discarded and the cells are washed with DPBS (w/o Mg^2+ w/o Ca^2+). The cells are detached by the addition of 2.0 mL Accumax per 75 cm^2 culture flask for up to 3 minutes at 37° C. and resuspended in 10 mL assay medium. After cell counting, 50,000 cells/well are administered in a volume of 50 μL into the white OptiPlates-96 containing the respective test compound concentrations. Following a 20 min incubation at 37° C. in the cell culture incubator, 20 μL of ^14C-citrate working solution is added to each well (final volume per well: 120 μL; final ^14C-citrate concentration: approx. 2 μM/well).\nAfter incubation for 4 h at 37° C. in a humid cell culture incubator and the addition of 30 μL of WGA-PVT SPA beads to each well (0.25 mg/well), the plates are sealed on the top using a transparent plastic foil. Incubate the plates for 1 h by room temperature and gentle shaking.\nAfter incubation, the plate is placed into the TopCount NXT HTS and the signal is recorded.\nThe performance of the test compounds is calculated as follows:\nWells containing cells incubated with 1% DMSO only deliver values for the non-inhibited ^14C-citrate uptake into 293Flp-In-hSLC13A5 cells (100% CTL). Wells containing cells which have received 30 mM non-labelled potassium citrate solution in addition to the ^14C-citrate working solution deliver values for the background (0% CTL).\nas §2"}}}
{"smiles": "O=C(NCc1ccccn1)C1CCN(S(=O)(=O)c2cc(Cl)cc(Cl)c2)CC1", "note": "[(I-11)]", "values": [{"measurement": "IC50", "setting": "[1]", "result": 0.455, "unit": "µM"}, {"measurement": "IC50", "setting": "[2]", "result": 0.687, "unit": "µM"}]}
{"smiles": "O=C(NCc1ccc(F)cn1)C1CCN(S(=O)(=O)c2cc(Cl)cc(Cl)c2)CC1", "note": "[(I-20)]", "values": [{"measurement": "IC50", "setting": "[1]", "result": 0.233, "unit": "µM"}, {"measurement": "IC50", "setting": "[2]", "result": 0.392, "unit": "µM"}]}
{"smiles": "O=C(NCc1ccc(Cl)cc1)C1CCN(S(=O)(=O)c2cc(Cl)cc(Cl)c2)CC1", "note": "[(I-5)]", "values": [{"measurement": "IC50", "setting": "[1]", "result": 0.022, "unit": "µM"}, {"measurement": "IC50", "setting": "[2]", "result": 0.056, "unit": "µM"}]}
{"smiles": "CCOc1cc(Cl)cc(S(=O)(=O)N2CCC(C(=O)NCc3nccs3)CC2)c1", "note": "[(I-49)]", "values": [{"measurement": "IC50", "setting": "[1]", "result": 0.1, "unit": "µM"}, {"measurement": "IC50", "setting": "[2]", "result": 0.154, "unit": "µM"}]}
{"smiles": "Cc1cc(Br)cc(S(=O)(=O)N2CCC(C(=O)NCc3ccccn3)CC2)c1", "note": "[(I-61)]", "values": [{"measurement": "IC50", "setting": "[1]", "result": 0.149, "unit": "µM"}, {"measurement": "IC50", "setting": "[2]", "result": 0.437, "unit": "µM"}]}
{"smiles": "Cc1cnc(CNC(=O)C2CCN(S(=O)(=O)c3cc(Cl)cc(Cl)c3)CC2)s1", "note": "[(I-27)]", "values": [{"measurement": "IC50", "setting": "[1]", "result": 0.113, "unit": "µM"}, {"measurement": "IC50", "setting": "[2]", "result": 0.341, "unit": "µM"}]}
{"smiles": "O=C(NCc1ccc(F)cc1)C1CCN(S(=O)(=O)c2cc(Cl)cc(Cl)c2)CC1", "note": "[(I-10)]", "values": [{"measurement": "IC50", "setting": "[1]", "result": 0.024, "unit": "µM"}, {"measurement": "IC50", "setting": "[2]", "result": 0.056, "unit": "µM"}]}
{"smiles": "O=C(NCc1ccccc1F)C1CCN(S(=O)(=O)c2cc(Cl)cc(Cl)c2)CC1", "note": "[(I-2)]", "values": [{"measurement": "IC50", "setting": "[1]", "result": 0.035, "unit": "µM"}, {"measurement": "IC50", "setting": "[2]", "result": 0.087, "unit": "µM"}]}
{"smiles": "Cc1ccc(CNC(=O)C2CCN(S(=O)(=O)c3cc(Cl)cc(Cl)c3)CC2)nc1", "note": "[(I-15)]", "values": [{"measurement": "IC50", "setting": "[1]", "result": 0.152, "unit": "µM"}, {"measurement": "IC50", "setting": "[2]", "result": 0.193, "unit": "µM"}]}
{"smiles": "N#Cc1ccc(CNC(=O)C2CCN(S(=O)(=O)c3cc(Cl)cc(Cl)c3)CC2)cc1", "note": "[Example (I-1)]", "values": [{"measurement": "IC50", "setting": "[1]", "result": 0.074, "unit": "µM"}, {"measurement": "IC50", "setting": "[2]", "result": 0.079, "unit": "µM"}]}
